ChEMBL document CHEMBL1153203, “Proposed structural basis of interaction of piperine and related compounds with monoamine oxidases” (Bioorg Med Chem Lett, 2010)

Assays:
[1] = molecular target: T1, Amine oxidase [flavin-containing] A (Rattus norvegicus, UniProt P21396); experiment: Inhibition of MAOA in rat brain mitochondria
T1 sequence (P21396 whole entry): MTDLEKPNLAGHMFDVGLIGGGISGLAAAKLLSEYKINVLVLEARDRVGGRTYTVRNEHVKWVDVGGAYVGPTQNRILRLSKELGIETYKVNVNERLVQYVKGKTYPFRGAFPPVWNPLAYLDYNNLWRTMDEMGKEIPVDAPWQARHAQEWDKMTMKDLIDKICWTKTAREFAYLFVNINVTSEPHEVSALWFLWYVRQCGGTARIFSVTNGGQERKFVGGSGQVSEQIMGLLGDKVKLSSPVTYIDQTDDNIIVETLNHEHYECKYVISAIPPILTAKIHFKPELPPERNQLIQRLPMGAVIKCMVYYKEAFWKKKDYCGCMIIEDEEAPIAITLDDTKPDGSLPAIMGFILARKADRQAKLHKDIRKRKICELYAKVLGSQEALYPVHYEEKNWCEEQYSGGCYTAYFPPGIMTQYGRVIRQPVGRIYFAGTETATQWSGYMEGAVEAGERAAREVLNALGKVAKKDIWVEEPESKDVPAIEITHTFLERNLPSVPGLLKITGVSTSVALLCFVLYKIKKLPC

[2] = molecular target: T2, Amine oxidase [flavin-containing] A (Mus musculus, UniProt Q64133); experiment: Inhibition of mouse brain MAOA
T2 sequence (Q64133 whole entry): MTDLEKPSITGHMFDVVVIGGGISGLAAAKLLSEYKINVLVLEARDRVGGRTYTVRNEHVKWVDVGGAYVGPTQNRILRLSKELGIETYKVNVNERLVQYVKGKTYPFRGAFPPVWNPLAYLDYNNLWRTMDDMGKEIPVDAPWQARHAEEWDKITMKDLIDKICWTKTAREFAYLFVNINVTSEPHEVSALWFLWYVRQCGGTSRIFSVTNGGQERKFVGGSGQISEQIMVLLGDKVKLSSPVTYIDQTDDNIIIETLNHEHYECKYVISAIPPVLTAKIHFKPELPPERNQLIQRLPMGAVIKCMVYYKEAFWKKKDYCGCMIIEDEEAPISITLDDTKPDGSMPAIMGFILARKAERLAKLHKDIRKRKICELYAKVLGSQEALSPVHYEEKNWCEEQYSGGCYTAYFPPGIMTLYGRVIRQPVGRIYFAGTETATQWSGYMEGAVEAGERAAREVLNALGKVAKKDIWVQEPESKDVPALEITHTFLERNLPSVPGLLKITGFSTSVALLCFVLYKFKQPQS

[3] = molecular target: T3, Amine oxidase [flavin-containing] B (Rattus norvegicus, UniProt P19643); experiment: Inhibition of MAOB in rat brain mitochondria
T3 sequence (P19643 whole entry): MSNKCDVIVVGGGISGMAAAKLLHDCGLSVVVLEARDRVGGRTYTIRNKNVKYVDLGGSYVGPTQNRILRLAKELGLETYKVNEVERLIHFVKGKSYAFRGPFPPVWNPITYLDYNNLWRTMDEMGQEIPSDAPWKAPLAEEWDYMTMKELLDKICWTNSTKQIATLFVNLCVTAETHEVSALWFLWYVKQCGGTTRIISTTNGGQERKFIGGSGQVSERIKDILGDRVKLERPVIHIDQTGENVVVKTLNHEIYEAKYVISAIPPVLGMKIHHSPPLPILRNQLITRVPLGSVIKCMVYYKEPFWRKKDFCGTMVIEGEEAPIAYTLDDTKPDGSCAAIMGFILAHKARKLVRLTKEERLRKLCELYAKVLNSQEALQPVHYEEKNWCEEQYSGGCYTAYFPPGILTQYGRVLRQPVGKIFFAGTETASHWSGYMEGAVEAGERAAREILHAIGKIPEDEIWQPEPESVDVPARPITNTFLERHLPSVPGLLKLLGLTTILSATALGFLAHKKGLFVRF

[4] = molecular target: T4, Amine oxidase [flavin-containing] B (Mus musculus, UniProt Q8BW75); experiment: Inhibition of mouse brain MAOB
T4 sequence (Q8BW75 whole entry): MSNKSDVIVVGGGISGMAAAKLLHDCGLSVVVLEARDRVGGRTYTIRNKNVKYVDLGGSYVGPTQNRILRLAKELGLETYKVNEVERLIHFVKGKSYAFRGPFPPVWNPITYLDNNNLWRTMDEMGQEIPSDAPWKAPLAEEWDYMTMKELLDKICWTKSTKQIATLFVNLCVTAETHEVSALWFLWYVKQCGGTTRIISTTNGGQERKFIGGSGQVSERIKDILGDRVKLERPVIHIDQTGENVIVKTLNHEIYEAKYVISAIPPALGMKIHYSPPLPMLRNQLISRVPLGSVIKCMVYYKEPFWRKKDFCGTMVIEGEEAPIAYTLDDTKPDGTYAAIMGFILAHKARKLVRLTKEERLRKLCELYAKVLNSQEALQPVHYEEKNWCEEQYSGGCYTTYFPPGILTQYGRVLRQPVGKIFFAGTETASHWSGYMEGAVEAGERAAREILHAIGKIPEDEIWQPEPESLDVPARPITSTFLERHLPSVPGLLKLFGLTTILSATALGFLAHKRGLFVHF

SMILES	Ki [1] [µM]	Ki [2] [µM]	Ki [3] [µM]	Ki [4] [µM]
O=C(/C=C/C=C/c1ccc2c(c1)OCO2)N1CCCCC1 [PIPERINE]	49.3	19	91.3	3.19
COC(=O)/C=C/C=C/c1ccc2c(c1)OCO2 [METHYL PIPERATE]	–	27.1	–	1.6
